From patent US20110257074A1, “METHOD FOR THE PURIFICATION OF SUBSTITUTED CYCLOPENT-2-EN-1-ONE CONGENERS AND SUBSTITUTED 1,3-CYCLOPENTADIONE CONGENERS FROM A COMPLEX MIXTURE USING COUNTERCURRENT SEPARATION” (Metaproteomics, LLC, priority 2008, published 2011) come the findings set out here.

Molecules are shown by their SMILES.

Data set [1] can be described thus: Shake-flask liquid distribution ratio (Kd), Hexane:Water:Buffer 10:9:1 solvent system. Format: physicochemical. As to the method:
Several shake-flask experiments were conducted to test several solvent systems and determine the liquid distribution ratio (Kd) and partition coefficient values for optimal separations. Partition coefficient values derived from shake-flask experiments are a reliable predictor of countercurrent chromatographic behavior. Kd is the concentration of the analyte in the upper phase divided by the concentration of the analyte in the lower phase and, in the alternative, may be listed as Ku/l.
General Procedure and Parameters for Shake Flask Experiments: Addition of 1 mL of the stock buffer at a known pH. Addition of the other necessary solvents to make up the system. Addition of the analyte mixture dissolved in hexane at 400 mg/mL. Final analyte concentration in the shake flask is 0.1 mg/mL. The flask was capped and mixed (by a vortex mixer) for 10 seconds. An aliquot was taken from the upper phase for HPLC analysis, and additionally a separate aliquot was taken from the lower phase for HPLC analysis from each flask. Each component was analyzed by HPLC and integrated using Shimadzu Class VP Software version 7.3 SP1.

A short description of data set [2]: Partition coefficient in trial HSCCC countercurrent separations of THIAA. Format: physicochemical. How it is done:
All HSCCC experimentation was conducted on a CCC-1000 J-type three-coiled planetary motion HSCCCC (Pharma-Tech Research Corp., Baltimore, Md., USA). The rotation radius is 7.5 cm, and 3×108 mL PTFE Teflon coils with an inner diameter of 1.6 mm, an outer diameter of 2.7 mm, and beta values of 0.47 to 0.73 for all coils. This was coupled with Shimadzu (Kyoto, Japan) liquid chromatography instrumentation: LC-20AT pump, DGU-20A5 degasser, CBM-20A controller, and SPD-10AV UV detector. A preparative Rheodyne (Rohnert Park, Calif. USA) 3725i-038 injector was in line with a 3.8 mL sample loop (changed to 10 mL for entry 7). The sample was monitored at 254 nm and 314 nm during the course of the run.
KU/L values for THIAA were determined in a variety of HEMWat solvent systems according to the shake-flask partitioning assay. Two solvent systems, referred to as A and B, provided K values within the range 1.5-2.5 and with significant differences between THIAA congeners (•K). For these reasons solvent systems A and B were selected for further development on the HSCCC (Table 9). […] The entries in Table 10 correspond to seven trial THIAA HSCCC purifications; entries 1-3 were conducted using solvent system A; entries 4-7 used solvent system B. Because of the difference in THIAA concentration between the shake-flask assay (0.1 mg/mL, 0.273 mM) and the HSCCC sample loop (100 mg/mL; 273 mM), aqueous phase buffer concentrations of 1.2 M (entries 1-3, Table 10) and 555 mM (entries 4-7, Table 10) were employed for the HSCCC trials. Entry 3 in Table 10 uses a bi-phasic sample-loop injection (solvent C, Table 9) consisting of 1.9 mL of upper phase (200 mg/mL THIAA, 0.55M) and 1.9 mL of lower phase (6.5M NH4HAc aq.). A switching volume was employed in entries 2, 6 and 7 in order to assess the elution-extrusion protocol as reported by Pauli et al.
Entries 4 & 5 Table 10, examine the effect of increasing the pH for solvent system B on the resolution between THIAA congeners. We reasoned that increased pH leads to a greater concentration of the ionized form of the THIAA (conjugate base) thus resulting in greater amounts of THIAA retained in the aqueous stationary phase i.e., increased retention volume (Vr).

The mark [3] stands for this setting: trial 1, solvent system A, ascending elution, 680 rpm, 4 mL/min, 3.8 mL sample loop.
Where [4] appears, read: trial 2, solvent system A, switching volume 320 mL, ascending elution, 680 rpm, 4 mL/min.
Where [5] appears, read: trial 3, solvent system A, bi-phasic sample-loop injection (1.9 mL solvent system C), ascending elution.
Where [6] appears, read: trial 4, solvent system B′, ascending elution, 680 rpm, 4 mL/min.
Where [7] appears, read: trial 5, solvent system B, ascending elution, 680 rpm, 4 mL/min.
Setting [8] is: trial 6, solvent system B, switching volume 600 mL, ascending elution.
The mark [9] stands for this setting: trial 7, solvent system B, switching volume 520 mL, 1.0 g raw material loaded, 10 mL sample loop.

For the molecule `CCC(C)C(=O)C1=C(O)[C@@](O)(C(=O)CCC(C)C)[C@H](CCC(C)C)C1=O` (single isomer, unassigned; (+)) [TH4], the “THIAA K Value” in data set [1] (pH 4.9, Aug. 5, 2008) came out at 55.6; in data set [1] (pH 5.5, Aug. 5, 2008), 16.1; in data set [1] (pH 5.6, Aug. 5, 2008), 11.0; in data set [1] (pH 6.0, Aug. 5, 2008) it was 5.5. In addition, the “Partition Coefficient” value was 1.0 in data set [2] (setting [3]); 1.0 in data set [2] (setting [4]); 1.1 in data set [2] (setting [5]); 0.6 in data set [2] (setting [6]); 0.8 in data set [2] (setting [7]); 0.8 in data set [2] (setting [8]). The “Partition Coefficient” value in data set [2] (setting [9]) is listed as 0.8.
Regarding `CC(C)CCC(=O)[C@]1(O)C(O)=C(C(=O)C(C)C)C(=O)[C@H]1CCC(C)C` [TH1, (+)-(4R,5S)-3,4-dihydroxy-2-isobutyryl-5-(3-methylbutyl)-4-(4-methylpentanoyl)cyclopent-2-en-1-one], the “THIAA K Value” in data set [1] (pH 4.9, Aug. 5, 2008) stood at 16.5; in data set [1] (pH 5.5, Aug. 5, 2008), 4.2; in data set [1] (pH 5.6, Aug. 5, 2008) it was 3.0; in data set [1] (pH 6.0, Aug. 5, 2008) it was 1.5. For the same molecule, the “Partition Coefficient” value in data set [2] (setting [3]) is given as 2.0; in data set [2] (setting [4]) it was 2.0; in data set [2] (setting [5]) it was 2.1; in data set [2] (setting [6]), 1.7; in data set [2] (setting [7]), 2.5; in data set [2] (setting [8]), 2.7. The “Partition Coefficient” value in data set [2] (setting [9]) is 2.6.
`CC(C)CCC(=O)[C@@]1(O)C(O)=C(C(=O)C(C)C)C(=O)[C@H]1CCC(C)C` [TH2, (−)-(4S,5S)-3,4-dihydroxy-2-isobutyryl-5-(3-methylbutyl)-4-(4-methylpentanoyl)cyclopent-2-en-1-one]: the “THIAA K Value” in data set [1] (pH 4.9, Aug. 5, 2008) amounted to 10.8; in data set [1] (pH 5.5, Aug. 5, 2008), 2.5; in data set [1] (pH 5.6, Aug. 5, 2008), 1.8; in data set [1] (pH 6.0, Aug. 5, 2008) it was 0.9.
For `CCC(C)C(=O)C1=C(O)C(O)(C(=O)CCC(C)C)C(CCC(C)C)C1=O` (stereo not drawn) [TH3, trans tetra ad-isoalpha acid], in that order: 60.3, 17.8, 11.4 and 5.5.
In the case of `CC(C)CCC(=O)[C@]1(O)C(O)=C(C(=O)CC(C)C)C(=O)[C@H]1CCC(C)C` [TH5, (+)-(4R,5S)-3,4-dihydroxy-2-(3-methylbutanoyl)-5-(3-methylbutyl)-4-(4-methylpentanoyl)cyclopent-2-en-1-one], the “THIAA K Value” amounted to 32.8 in data set [1] (pH 4.9, Aug. 5, 2008); 9.5 in data set [1] (pH 5.5, Aug. 5, 2008); 6.6 in data set [1] (pH 5.6, Aug. 5, 2008); 3.3 in data set [1] (pH 6.0, Aug. 5, 2008). Moreover, the “Partition Coefficient” value in data set [2] (setting [3]) is given as 1.4; in data set [2] (setting [4]) it was 1.4; in data set [2] (setting [5]), 1.4; in data set [2] (setting [6]), 0.9; in data set [2] (setting [7]) it was 1.3; in data set [2] (setting [8]), 1.3. For the same molecule, the “Partition Coefficient” value in data set [2] (setting [9]) worked out at 1.5.
